Data taken from article PMC7844538, “Peptide-Conjugated Phosphorodiamidate Morpholino Oligomers Retain Activity against Multidrug-Resistant Pseudomonas aeruginosa In Vitro and In Vivo” (mBio, 2021).

Tests used:
[1] = test system: P. aeruginosa PAO1 biofilm; assay: Established biofilm on MBEC pegs, crystal violet (total biomass); assay type: cell-based, Pseudomonas aeruginosa; conditions: PAO1, 24 h biofilm, dosed at 24, 32, 40 h, read at 48 h; tobramycin 0.625 µg/ml, piperacillin-tazobactam 0.25 µg/ml, PPMO 0.25 µM (legend 2.5 μM)
Method: We previously reported that treatment with PPMO alone was effective in both preventing and decreasing established P. aeruginosa biofilm in vitro ([14]). Here, we aimed to determine whether combining a PPMO with a traditional antibiotic (that also had minimal biofilm-inhibitory activity on its own) could enhance biofilm eradication compared to either drug alone. Biofilms were established in minimal biofilm eradication concentration (MBEC) plates by growing P. aeruginosa PAO1 at 37°C. At 24 h postinoculation, lids with established biofilm were moved to new 96-well plates containing fresh media with either antibiotic only (0.625 µg/ml tobramycin or 0.25 µg/ml piperacillin-tazobactam), PPMO only [0.25 µM either AcpP-RXR(3′) or RpsJ-RXR(3′)], or PPMO plus antibiotic as indicated. We hypothesized that the combination of antibiotics and PPMOs targeting a similar cellular process, such as bacterial cell wall (AcpP and piperacillin-tazobactam) or protein synthesis (RpsJ and tobramycin) would enhance biofilm eradication.
FIG 1 PPMOs in combination with traditional antibiotics display enhanced activity and reduce established P. aeruginosa strain PAO1 biofilm. […] Statistical differences were determined by one-way ANOVA and indicated as follows: ***, P < 0.0001; **, P < 0.001; *, P < 0.05; n.s., not significant. […]

[2] = test system: P. aeruginosa MB447; assay: MIC against XDR strain MB447; assay type: cell-based, Pseudomonas aeruginosa; conditions: medium not stated
Method: MIC assays of PPMOs were determined according to the Clinical and Laboratory Standards Institute (CLSI) broth microdilution method ([29]), using the method previously described ([14]). The assays were performed in 96-well tissue culture plates (Thermo Fisher Scientific, Waltham, MA). All reagents were analytical grade and were obtained from Sigma-Aldrich (St. Louis, MO), Acros Organics (Geel, Belgium), UT Southwestern Campus Pharmacy, or Thermo Fisher Scientific (Waltham, MA). Morpholinopropanesulfonic acid (MOPS) minimal medium was prepared as previously described ([30], [31]).

[3] = test system: P. aeruginosa strain MB447; assay: Acute pneumonia mouse model with XDR strain, survival; assay type: in vivo, Pseudomonas aeruginosa in BALB/c mice; conditions: for survival at day 4: 15 mg/kg intratracheal at 15 min, then intranasal at 24 h (legend: 6 h); for Median survival: 15 mg/kg, two treatments, Kaplan-Meier
Method: To test whether PPMOs retained in vivo activity in an XDR strain, we utilized the AcpP-RXR(5′) PPMO in the acute pneumonia model using XDR P. aeruginosa strain MB447, a carbapenem-resistant bloodstream isolate. […] Mice were infected intratracheally followed by intratracheal treatment 15 min postinfection with either 15 mg/kg of AcpP-RXR(5′), scrambled control PPMO (Scr), PBS, 15 mg/kg of meropenem, or 15 mg/kg of tobramycin, and the bacterial burden was determined at 24 h postinfection.
Mice were infected intratracheally with P. aeruginosa strain MB447 (∼10^7 CFU/mouse). (A) Mice were treated intratracheally 15 min postinfection with 15 mg/kg/24 h of AcpP-RXR(5′) and the corresponding scrambled PPMO, tobramycin, and meropenem and were euthanized at 24 h, and lung tissues were processed as previously described. All samples were plated for viable CFU on PIA. Each symbol represents the value for a single mouse. Error bars represent SEM. Statistical differences were determined using one-way ANOVA and indicated as follows: ****, P < 0.0001; **, P < 0.01; *, P < 0.05. (B) Mice were treated intratracheally 15 min postinfection and intranasally at 6 h postinfection (a total of two treatments) with the same compounds and doses. Mice were monitored for 4 days postinfection.
P. aeruginosa strains PA103, PA103 P1-lux, and MB447 were grown on Pseudomonas isolation agar (PIA) for 16 to 18 h at 37°C and suspended in PBS to an optical density at 600 nm (OD600) of 0.5, corresponding to ∼10^9 CFU/ml. Inocula were adjusted spectrophotometrically to obtain the desired sublethal challenge dose in a volume of 25 μl. Six- to 8-week-old female BALB/c mice (Jackson Laboratories, Bar Harbor, ME) were anesthetized by intraperitoneal injection of 0.2 ml of a mixture of ketamine (6.7 mg/ml) and xylazine (1.3 mg/ml). Mice were infected by noninvasive intratracheal instillation of dilutions of P. aeruginosa strain as indicated ([34]).

[4] = test system: P. aeruginosa PAO1 biofilm; assay: Established biofilm on MBEC pegs, viability (resazurin, CFU); assay type: cell-based, Pseudomonas aeruginosa; conditions: PAO1, 24 h biofilm, dosed at 24, 32, 40 h, read at 48 h; tobramycin 0.625 µg/ml, PPMO 0.25 µM (legend 2.5 μM)
Method: PAO1 biofilms were established on MBEC pegs for 24 h and then treated either with 0.625 μg/ml tobramycin, 0.25 μg/ml piperacillin/tazobactam (Pip/Tazo), 2.5 μM AcpP-RXR(3′), 2.5 μM RpsJ-RXR(3′) or with a combination of PPMO and antibiotic at 24, 32, and 40 h. […]
The viability and metabolic state of biofilm-associated cells were determined using resazurin dye ([17]). […] This time point was previously optimized based on the time needed for the untreated control cells to reach maximum fluorescence. The plates were read at an excitation of 530 nm and emission of 590 nm on a Synergy BioTek plate reader. Viable CFU from the biofilms were also determined by rinsing MBEC pegs in PBS three times to remove planktonic bacteria, followed by cutting the peg off the base with a hot scalpel and placing it in a 14 ml Falcon tube containing 1 ml PBS. […]

[5] = test system: P. aeruginosa PA103; assay: Acute pneumonia mouse model, intraperitoneal PPMO alone or with tobramycin, survival; assay type: in vivo, Pseudomonas aeruginosa in BALB/c mice; conditions: intraperitoneal at 6, 12 and 24 h; Kaplan-Meier
Method: Mice were treated by intraperitoneal injection of RpsJ-RXR(3′) (15 mg/kg), tobramycin (15 mg/kg), scrambled PPMO (15 mg/kg) alone or in combination (scrambled PPMO plus tobramycin or RpsJ PPMO plus tobramycin) at 6, 12, and 24 h for a total of three treatments after intratracheal infection with a […] dose of P. aeruginosa PA103. Mice were monitored for up to 4 days postinfection. […] Mice treated with RpsJ-RXR(3′) or tobramycin had 50 to 60% increased survival compared to PBS or scrambled control, respectively.
FIG 4 PPMOs work in concert with traditional antibiotics to improve survival in acute lung model of infection. […] Mice were monitored for 4 days postinfection. Results are represented by Kaplan-Meier survival curves and were analyzed by log rank test (log rank test, RpsJ versus PBS, P < 0.001; RpsJ versus Scr, P < 0.05; RpsJ versus RpsJ plus tobramycin, P < 0.05; Scr versus Scr plus tobramycin, P = 0.1778. Median survival: PBS, 36 h; Scr, 48 h; RpsJ, tobramycin, and combination treatments, undefined). […]
Mice were infected as described above and treated either intraperitoneally or intranasally with 15 mg/kg/treatment of PPMO or corresponding controls as indicated. Animals were treated at 6, 12, or 24 h postinfection, with a total of three doses and were monitored for survival up to 4 days postinfection.

Compound	reduction of established biofilm mass compared to untreated [1]	MIC of strain MB447 against antibiotic [2] [µM]	survival at day 4 [3] [%]	Median survival [3]	decrease of biofilm cell viability compared to no treatment [4] [%]	Median survival [5]
piperacillin-tazobactam	no impact on established biofilm					
C[C@@H](O)[C@H]1C(=O)N2C(C(=O)O)=C(S[C@@H]3CN[C@H](C(=O)N(C)C)C3)[C@H](C)[C@H]12 [meropenem]		32	0	34 h		
NC[C@H]1O[C@H](O[C@H]2[C@H](O)[C@@H](O[C@H]3O[C@H](CO)[C@@H](O)[C@H](N)[C@H]3O)[C@H](N)C[C@@H]2N)[C@H](N)C[C@@H]1O [tobramycin]	50%	8	67	undefined	50	undefined
